Where a SMILES comes first, the peptide text is derived from it. Bridges are numbered along the chain shown (N, C = ends). [ ]: non-standard residue; d: D form. The star is where a group is joined. Ileψ(thiazoline)Cys = CC[C@H](C)[C@H](N)C1=N[C@H](C(=O)*)CS1; dOrn = NCCC[C@@H](N)C(=O)O
Experiments:
mites [1] = assay: Control and elimination of mites in poultry flocks by bacitracin feed supplement (general finding); type: in vivo
Excerpt: This unique use is for the control and elimination of mites in poultry flocks.

mites [2] = assay: Treatment of mite-infested chicken flock with zinc bacitracin in the feed; type: in vivo
Excerpt: The following example is offered to illustrate the manner in which the zinc bacitracin is used and the efficiency which it has realized. A flock of 10,000 Babcock chickens of an approximate age of 9-10 months, weighing approximately 3 pounds became heavily infested with mites. […] Ten months later the same flock again became mite infested.

Row | Compound | toxicity to mites (mites [1]; applicant's discovery, no details) | elimination of mites from infested poultry flock (mites [1]; between 100 and 200 grams of bacitracin per ton of poultry grain for several days) | disappearance of mites from infested flock (mites [2]; flock of 10,000 Babcock chickens, 9-10 months old, heavily infested, 100 grams per ton in normal feed for seven days) | effect of same treatment on re-infestation (mites [2]; same flock again mite infested ten months later, same treatment (100 grams per ton feed, seven days))
1 | CC[C@H](C)[C@H](N)C1=N[C@H](C(=O)N[C@@H](CC(C)C)C(=O)N[C@H](CCC(=O)O)C(=O)N[C@H](C(=O)N[C@H]2CCCCNC(=O)[C@H](CC(N)=O)NC(=O)[C@@H](CC(=O)O)NC(=O)[C@H](Cc3cnc[nH]3)NC(=O)[C@@H](Cc3ccccc3)NC(=O)[C@H]([C@@H](C)CC)NC(=O)[C@@H](CCCN)NC2=O)[C@@H](C)CC)CS1 [bacitracin] ({Ileψ(thiazoline)Cys}-L[dE]IK[dOrn]I[dF]H[dD]N; lactam 4-C) | toxic to mites | substantially eliminate mites | – | –
2 | zinc bacitracin | – | – | substantially all of the mites had disappeared | same effective results
